The record followed here is US20070117849A1, “Alfavbeta3 and alfavbet6 integrin antagonists as antifibrotic agents” (priority 2003, published 2007).

The subject of test [1] is procollagen α1(I), TGFβ1, TGFβ2, MMP-3, MMP-13, MMP-2, TIMP-1. Nature of the test: Real-Time PCR of other pro- and anti-fibrogenic molecules in HSC/MF. The class given is cell-based, rat. As to conditions: PDGF-BB 10 ng/ml 24 h; data not shown. The protocol:
(§1) Real-Time PCR Total RNA was isolated from the cell lysates using the RNApure commercial kit (PeqLab, Erlangen, Germany) according to the manufacturer's recommendations. Template cDNA was obtained by reverse transcription of […] of total RNA.
(§2) Relative transcript levels were quantified by real time RT-PCR using the LightCycler system (Roche), using 1,5 μl of template cDNA dilution in a total reaction volume of 15 μl that included Taq DNA-Polymerase, dNTP-mix, reaction buffer, and 3.0 mM MgCl2 provided by the “LightCycler FastStart DNA Master Hybridization Probes Kit” (Roche Molecular Biochemicals, Mannheim, Germany) according to the manufactor's instructions. For every measured transcript a 1:2 to 1:32 dilution series of one sample was used as standard. Data were analyzed with the LightCycler software using the “proportional second derivative maximum” option. The housekeeping genes beta-2 microglobulin or GAPDH were amplified in a parallel reaction for normalization of the results. […]
(§3) To investigate whether the […] integrin inhibitor had any effect on ECM expression in HSC/MF mRNA, expression of a spectrum of the major pro- and anti-fibrogenic molecules like procollagen α1(I) I, TGFβ1, TGFβ2, MMP-3, MMP-13, MMP-2, connective tissue growth factor (CTGF) and TIMP-1 was measured by Real-Time PCR. […]
On the technique in general: Quantitative PCR measures a nucleic acid by following its amplification.

The subject of another test is primary rat HSC/MF. Nature of the test: Scratch assay (cell migration), primary rat HSC/MF. The class given is cell-based. As to the method:
Briefly, the liver was perfused in situ through the portal vein using a 16-18 G cannula with calcium-free HBSS (Gybco, UK) for S min followed by 0,1% Pronase E (Sigma) and subsequently 0.025% type IV collagenase (Sigma) in Dulbecco's modified Eagle's medium for 10-15 min each. The digested liver was excised, gently minced and incubated further with 0.04% pronase, 0,025% collagenase, 0,002% DNAse (Sigma) in Dulbecco's modified Eagle's medium, supplemented with 25 mM HEPES at 37° C. for 10-30 min with gentle agitation. After filtration through 100 μm nylon gauze, parenchymal cells were removed by low speed centrifugation. The HSC fraction was collected from the gradient interface after enrichment by a two-step centrifugation through a 11 and 13% gradient of Nycodenz (Sigma) at 1500 g for 15 min without braking, and plated at a density 0.5×10^6/cm^2 in DMEM supplemented with 10% FCS, penicillin and streptomycin. Medium was changed after 24 h, and further every 48 hours. Viability of the isolated cells was assessed by Trypan Blue exclusion and was routinely greater then 95-98%. Purity of HSC isolates was confirmed by their typical morphological appearance: lipid-droplets in the cytoplasm showing greenish autofluorescence at 390 nm excitation and star-like shape. Contamination with Kupffer cells was assessed by the ability to engulf 3 μm latex beads and was below 3-5% after isolation, and almost undetectable after the 1st passage. For experiments cells were used between the 1st and 3rd passage, if not stated otherwise.
(§4) Scratch assay: Cell migration was estimated by measuring the reduction of scratch area. Cells were seeded on a 24-well plate at a density of 60,000 cells/well. After reaching confluency cells were starved in serum-free medium for 24 h before making a scratch through the cell monolayer using a sterile pipet tip. After wounding cells were pre-treated by the αvβ3-integrin inhibitor at increasing concentrations (10^−10M-10^−6M) for 30 min and then treated by PDGF-BB at a concentration of 10 ng/ml in the absence of serum. The reduction of scratch area was measured at three different points per well using a special ocular with net-micrometer after […].
(§5) All experiments were performed in cell culture with the myofibroblasts-like cell line CFSC-2G (HSC cell line derived from cirrhotic rat liver) and primary rat HSC/MF. To investigate the effect of the αvβ3 integrin inhibitor on cell migration cells were seeded on 24 well plates and after reaching confluence starved in the absence of FCS for 24 h. Scratches were done and the cells treated with PDFG-BB at 10 ng/ml in the presence or absence of the αvβ3 inhibitor at 10^−6-−10^9 M. The rate of migration was measured after 17-20 h as a reduction of initial scratch width. […]

A further test has as its system CTGF. Briefly: Real-Time PCR of CTGF expression in CFSC-2G cells. The class given is cell-based, rat. To be noted: PDGF-BB 10 ng/ml 24 h, inhibitor 10^−6-10^−8 M, dose-dependent, maximum of inhibition at 10^−6 M. As to the method: as §1, §2, §3
The test system of the next test is HSC/MF. Nature of the test: BrdU incorporation (cell proliferation, de novo DNA synthesis). Format: cell-based, rat. As to the method:
Briefly, the liver was perfused in situ through the portal vein using a 16-18 G cannula with calcium-free HBSS (Gybco, UK) for S min followed by 0,1% Pronase E (Sigma) and subsequently 0.025% type IV collagenase (Sigma) in Dulbecco's modified Eagle's medium for 10-15 min each. The digested liver was excised, gently minced and incubated further with 0.04% pronase, 0,025% collagenase, 0,002% DNAse (Sigma) in Dulbecco's modified Eagle's medium, supplemented with 25 mM HEPES at 37° C. for 10-30 min with gentle agitation. After filtration through 100 μm nylon gauze, parenchymal cells were removed by low speed centrifugation. […] Viability of the isolated cells was assessed by Trypan Blue exclusion and was routinely greater then 95-98%. […] Contamination with Kupffer cells was assessed by the ability to engulf 3 μm latex beads and was below 3-5% after isolation, and almost undetectable after the 1st passage. […]
BrdU incorporation: To assess cell proliferation de novo DNA synthesis was determined as BrdU incorporation. […] During last […] of incubation cells were pulse-labeled with BrdU and its incorporation measured using an ELISA kit (Roche) and a micro-plate reader. […]
Background: Uptake of a labelled nucleoside into DNA is a usual measure of proliferation.

The subject of a further test is CFSC-2G cells. Briefly: Scratch assay (cell migration), CFSC-2G cells. Format: cell-based, rat. To be noted: PDGF-BB 10 ng/ml, 17-20 h. The protocol: In addition the HSC cell lines CFSC-2G (moderately activated, kind gift of Dr. M. Rojkind, Washington DC, USA) were used.
as §4, §5

In test [2] the test system is secondary biliary liver fibrosis. Nature of the test: Rat fibrosis model of bile duct occlusion (secondary biliary liver fibrosis). The class given is in vivo. To be noted: after 5-6 weeks of bile duct occlusion, pilot experiments. The protocol: Animal experimentation: Male adult Wistar rats, average weight 206±19 g, underwent the following microsurgical procedure under an operating microscope (OPMI 6-S, Zeiss, Germany) (45-47): 1. midline abdominal incision following anesthesia with 100 mg/kg ketamine-hydrochloride (Ketanest®, Parke-Davis, Germany) and 10 mg/kg 5,6-dihydro-2-(2,6-xylidino)-4H-1,3-thiazine-hydrochloride (Rompun®, Bayer, Germany); 2. dissection of the common bile duct, insertion of a teflon catheter (Abbocath®-T 26 G, Venisystems, USA) and placement of a distal complete and a proximal incomplete ligature with 5-0 silk (Perma-hand®, Ethicon, Germany); 3. retrograde injection of sodium-amidotrizoate (Ethibloc®, Ethicon Germany) at a dose of […] body weight; 4. removal of the catheter, closure of the proximal ligature, scission of the bile duct between the ligatures and wound closure. After bile duct occlusion (BDO), animals received normal chow (Altromin®, Lage, Germany) and were allowed free access to water. […]
as §3

With `CNc1cccc(CCOc2ccc3c(C(CC(=O)O)c4ccc5nsnc5c4)c[nH]c3c2)n1` (centres unmarked) [EMD 409915, 3-Benzo[1,2,5]thiadiazol-5-yl-3-{6-[2-(6-methylamino-pyridin-2-yl)-ethoxy]-1H-indol-3-yl}-propionic acid], the “transcripts levels of other ECM molecules” value in test [1] is given as “no change”. Also, the “inhibition of migration at reduced concentrations of FCS” value with primary rat HSC/MF (FCS 0,25%, data not shown) is “did not show any significant inhibition”. The “cell migration stimulated by FCS” value in the test on primary rat HSC/MF (HSC/MF, FCS-stimulated, inhibitor 10^−10-10^−6 M, 20 h) was “no effect”. Also, the “PDGF-BB induced cell migration into the scratch area” value is reported as “strongly inhibited” in the test on primary rat HSC/MF (primary rat HSC/MF, PDGF-BB 10 ng/ml, inhibitor 10^-9-10^-6 M, 17-20 h, dose-dependent) and “strongly inhibited” with CFSC-2G cells (inhibitor 10^-9-10^-6 M, dose-dependent). Besides, the “PDGF-BB induced cell migration at 10^−6 M” value in the test on primary rat HSC/MF (primary rat HSC/MF, PDGF-BB 10 ng/ml, inhibitor 10^−6 M, 17-20 h) is “Complete abrogation”; with CFSC-2G cells (inhibitor 10^−6 M) it was “Complete abrogation”. For the same molecule, the CTGF expression entry with CTGF is listed as “downregulated”. Also, in the test with HSC/MF (10% FCS, inhibitor 10^−6-10^−8 M), the serum-stimulated cell proliferation entry is “absence of effect”. The “PDGF-BB stimulated cell proliferation” value in the test with HSC/MF (all cell types, PDGF-BB 10 ng/ml, inhibitor 10^−8-10^−6 M, 24 h) is “did not have any effect”.
As for `O=C(O)CC(NC(=O)C(COCc1ccccc1)NC(=O)CCCCNc1ccccn1)c1cc(Cl)cc(Cl)c1` (centres unmarked) [EMD 409849, 3-{3-Benzyloxy-2-[5-(pyridin-2-ylamino)-pentanoylamino]-propanoylamino}-3-(3,5-dichloro-phenyl)-propionic acid], in test [2], the “reduction of total liver collagen” value is listed as 50-70%.
